From US20250214969A1, “PROTEIN DEGRADERS AND USES THEREOF” (Kymera Therapeutics, Inc., priority 2022, published 2025) come the findings set out here.

In one assay the target is T1, truncated His-MBP-Tev-KLHDC2 (residues 1-363) (Homo sapiens, UniProt Q9Y2U9).
T1 construct: truncated His -MBP-Tev-KLHDC2 (residues 1-363) purified from E. coli; made in house; host or cells: E. coli
T1 sequence (Q9Y2U9 1-363): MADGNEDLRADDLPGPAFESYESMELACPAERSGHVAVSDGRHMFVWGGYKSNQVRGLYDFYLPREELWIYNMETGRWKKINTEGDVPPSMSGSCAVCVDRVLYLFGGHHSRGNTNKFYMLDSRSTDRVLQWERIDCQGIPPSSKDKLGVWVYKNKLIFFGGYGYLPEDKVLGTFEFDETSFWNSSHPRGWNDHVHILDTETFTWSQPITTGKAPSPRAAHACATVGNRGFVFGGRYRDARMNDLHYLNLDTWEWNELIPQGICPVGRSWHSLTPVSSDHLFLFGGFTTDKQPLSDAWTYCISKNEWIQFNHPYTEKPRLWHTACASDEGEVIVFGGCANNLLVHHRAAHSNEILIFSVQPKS
The experiment in a line: KLHDC2 HTRF binding assay. The following applies: 1 nM KLHDC2 (residues 1-363), fluorescein-labeled diglycine peptide probe. (In TR-FRET formats the signal depends on donor and acceptor labels being close together.)
Protocol: HTRF binding assays were performed using 1 nM truncated His -MBP-Tev-KLHDC2 (residues 1-363) purified from E. coli, 0.2 nM terbium-anti-His antibody (CisBio), 1 nM fluorescein-labeled diglycine peptide probe, and test compounds in assay buffer consisting of 50 mM HEPES-Na pH 7.5, 100 mM NaCl, 2 mM DTT, 0.005% Tween-20 with a final volume of 20 uL. Compound stocks were dissolved at 10 mM in 100% DMSO and 11 point titration with 3 fold serial dilution was performed in white, opaque 384 well microplates. Reaction plates were incubated at room temperature for 30 minutes. Plates were centrifuged at low rpm for 5 mins, and the ratio of fluorescence intensities were measured at emission wavelengths for fluorescein acceptor (520 nm) and terbium donor (495 nm) on Envision Plate reader. % Inhibition was calculated from the 520/495 ratio generated by the no protein controls for 100% inhibition and DMSO only reactions for 0l % inhibition.
Consider `COc1cc(-c2cccnc2)ccc1C(=O)Nc1ccc(=O)n(CC(=O)O)c1` [I-204], for which the IC50 is 0.5 to 5 µM.

Consider `O=C(O)Cn1cc(NC(=O)c2ccc(-c3cccnc3)s2)ccc1=O` [I-205], for which the IC50 is above 5 µM.

In the case of `O=C(O)CN1CC(NC(=O)c2cccc(-c3ccccc3)c2)CCC1=O` (centres unmarked) [I-206], the IC50 is above 5 µM.

`CSCCC(NC(=O)c1ccccc1C)C(=O)Nc1ccc(=O)n(CC(=O)O)c1` (centres unmarked) [I-208]: the IC50 was above 5 µM.

`O=C(O)Cn1cc(NC(=O)c2cccc(-c3ccccn3)c2)ccc1=O` [I-209] yielded an IC50 above 5 µM.

In turn, `COc1ccc(/C=C/CC(=O)Nc2ccc(=O)n(CC(=O)O)c2)cc1` [I-210] came in with an IC50 above 5 µM.

`O=C(O)Cn1cc(NC(=O)c2ccc3ccccc3c2)ccc1=O` [I-211] displayed an IC50 of 0.5 to 5 µM.

Take `O=C(O)Cn1cc(NC(=O)c2ccc(-c3ccccc3)cc2)ccc1=O` [I-212]: the IC50 fell in the range of 0.5 to 5 µM.

Take `O=C(O)C1CC(=O)N(C2CCSc3ccccc32)C1` (centres unmarked) [I-213]: the IC50 is above 5 µM.

Take `O=C(O)Cn1c(=O)oc2cc([N+](=O)[O-])ccc21` [I-214]: the IC50 is above 5 µM.

In the case of `O=C(O)C1CCOc2ccc(Cl)cc21` (centres unmarked) [I-215], the IC50 was above 5 µM.

Regarding `O=C(O)C1CC(=O)N(C2CC2)C1` (centres unmarked) [I-216], the IC50 is above 5 µM.

As to `CCN1C(=O)CCC(C(=O)O)C1c1cnn(C)c1` (centres unmarked) [I-217], the IC50 was above 5 µM.

`COc1cccc(C2C(C(=O)O)CC(=O)N2C2CC2)c1` (centres unmarked) [I-218]: the IC50 was above 5 µM.

In turn, `CC(NC(=O)CCC(=O)O)C(=O)c1ccccc1` (centres unmarked) [I-219] displayed an IC50 above 5 µM.

The compound `O=C(O)C1CC(=O)N(Cc2cccnc2)C1` (centres unmarked) [I-220] had an IC50 above 5 µM.

With `O=C(O)C1CC(=O)N(Cc2ccc(Cl)cc2)C1` (centres unmarked) [I-221], the IC50 is above 5 µM.

For `NC(=O)c1ccc(CN2C(=O)CCC2C(=O)O)cc1` (centres unmarked) [I-222], the IC50 was above 5 µM.

On to `O=C(O)Cc1cnn2ccccc12` [I-223], for which the IC50 was above 5 µM.

`O=C(O)CN1C(=O)Cc2ccccc21` [I-224] displayed a half-maximal inhibitory concentration (IC50) above 5 µM.

Regarding `O=C(O)CCC(=O)NCc1nc2ccccc2s1` [I-225], the IC50 was above 5 µM.

Compound `Cn1cc(N2CC(C(=O)O)CC2=O)cn1` (centres unmarked) [I-226] gave an IC50 above 5 µM.

`CS(=O)(=O)Nc1cccc(CC(=O)O)c1` [I-227] gave an IC50 above 5 µM.

On to `O=C(O)C1CC(=O)N(CCOc2ccccc2Cl)C1` (centres unmarked) [I-228], for which the IC50 is above 5 µM.

In turn, `O=C(O)CCN1C(=O)CCc2ccccc21` [I-229] returned an IC50 above 5 µM.

`O=C(O)C1CC(=O)N(Cc2ccccn2)C1` (centres unmarked) [I-230] came in with an IC50 above 5 µM.

Compound `O=C(O)CC1NC(=O)c2ccccc21` (centres unmarked) [I-231] showed an IC50 above 5 µM.

In the case of `CC(C(=O)O)N1CCCCC1=O` (centres unmarked) [I-232], the IC50 is above 5 µM.

As to `Cn1ccc(N2CC(C(=O)O)CC2=O)n1` (centres unmarked) [I-233], the IC50 is above 5 µM.

Compound `CC1(C)CCc2c(C(=O)Nc3ccc(=O)n(CC(=O)O)c3)csc2C1` [I-234] registered an IC50 of 0.5 to 5 µM.

For `O=C(O)Cn1cc(NC(=O)CC2Cc3ccc(Cl)cc3C2=O)ccc1=O` (centres unmarked) [I-235], the IC50 was above 5 µM.

The next assay concerns the target T1, truncated His-MBP-Tev-KLHDC2 (residues 1-363). The assay can be described thus: KLHDC2 FP competition binding assay. The following applies: 15 nM KLHDC2 (residues 1-363), 10 nM fluorescein-labeled diglycine peptide probe, read-out: KLHDC2 binding Human FP: average external IC50.
Protocol: FP competition binding assays were performed using 15 nM truncated His -MBP-Tev-KLHDC2 (residues 1-363) purified from E. coli, 10 nM fluorescein-labeled diglycine peptide probe, and test compounds in assay buffer consisting of 50 mM HEPES-Na pH 7.5, 100 mM NaCl, 2 mM DTT, 0.005% Tween-20 with a final volume of 20 uL. Compound stocks were dissolved at 10 mM in 100% DMSO and 11 point titration with 3 fold serial dilution was performed in black, flat bottom 384 well microplates. Plates were incubated at room temperature for 30 minutes. Plates were centrifuged at 1000 rpm for 1 min, data were collected using an Envision plate reader in fluorescence polarization mode with excitation filter FITC FP at 480 nm, emission filter FITC FP P-pol at 535 nm and FITC FP S-pol at 535 nm. FP signal was calculated using the equation (mP=1000*(S-G*P)/(S+G*P), G-factor=1.0) and % Inhibition was calculated using no-protein controls for 100% inhibition and DMSO only reactions for 0l % inhibition (yes).
In the case of `COc1cc(-c2cccnc2)ccc1C(=O)Nc1ccc(=O)n(CC(=O)O)c1` [I-204], the IC50 was above 5 µM.

For the compound `O=C(O)Cn1cc(NC(=O)c2ccc(-c3cccnc3)s2)ccc1=O` [I-205], the half-inhibitory concentration (IC50) was above 5 µM.

As to `O=C(O)CN1CC(NC(=O)c2cccc(-c3ccccc3)c2)CCC1=O` (centres unmarked) [I-206], the IC50 was above 5 µM.

Consider `CSCCC(NC(=O)c1ccccc1C)C(=O)Nc1ccc(=O)n(CC(=O)O)c1` (centres unmarked) [I-208], for which the IC50 was above 5 µM.

For the compound `O=C(O)Cn1cc(NC(=O)c2cccc(-c3ccccn3)c2)ccc1=O` [I-209], the IC50 is above 5 µM.

Regarding `COc1ccc(/C=C/CC(=O)Nc2ccc(=O)n(CC(=O)O)c2)cc1` [I-210], the IC50 was above 5 µM.

With `O=C(O)Cn1cc(NC(=O)c2ccc3ccccc3c2)ccc1=O` [I-211], the IC50 is above 5 µM.

Regarding `O=C(O)Cn1cc(NC(=O)c2ccc(-c3ccccc3)cc2)ccc1=O` [I-212], the IC50 is above 5 µM.

Take `O=C(O)C1CC(=O)N(C2CCSc3ccccc32)C1` (centres unmarked) [I-213]: the IC50 was above 5 µM.

`O=C(O)Cn1c(=O)oc2cc([N+](=O)[O-])ccc21` [I-214]: the IC50 was above 5 µM.

For `O=C(O)C1CCOc2ccc(Cl)cc21` (centres unmarked) [I-215], the IC50 was above 5 µM.

With `O=C(O)C1CC(=O)N(C2CC2)C1` (centres unmarked) [I-216], the half-inhibitory concentration (IC50) is above 5 µM.

In the case of `CCN1C(=O)CCC(C(=O)O)C1c1cnn(C)c1` (centres unmarked) [I-217], the IC50 is above 5 µM.

With `COc1cccc(C2C(C(=O)O)CC(=O)N2C2CC2)c1` (centres unmarked) [I-218], the IC50 was above 5 µM.

Turning to `CC(NC(=O)CCC(=O)O)C(=O)c1ccccc1` (centres unmarked) [I-219], the IC50 was above 5 µM.

On to `O=C(O)C1CC(=O)N(Cc2cccnc2)C1` (centres unmarked) [I-220], for which the IC50 was above 5 µM.

For the compound `O=C(O)C1CC(=O)N(Cc2ccc(Cl)cc2)C1` (centres unmarked) [I-221], the IC50 was above 5 µM.

As for `NC(=O)c1ccc(CN2C(=O)CCC2C(=O)O)cc1` (centres unmarked) [I-222], the IC50 was above 5 µM.

Turning to `O=C(O)Cc1cnn2ccccc12` [I-223], the IC50 was above 5 µM.

Consider `O=C(O)CN1C(=O)Cc2ccccc21` [I-224], for which the IC50 was above 5 µM.

With `O=C(O)CCC(=O)NCc1nc2ccccc2s1` [I-225], the IC50 is above 5 µM.

As to `Cn1cc(N2CC(C(=O)O)CC2=O)cn1` (centres unmarked) [I-226], the IC50 is above 5 µM.

Regarding `CS(=O)(=O)Nc1cccc(CC(=O)O)c1` [I-227], the IC50 was above 5 µM.

For `O=C(O)C1CC(=O)N(CCOc2ccccc2Cl)C1` (centres unmarked) [I-228], the IC50 was above 5 µM.

Consider `O=C(O)CCN1C(=O)CCc2ccccc21` [I-229], for which the IC50 is above 5 µM.

For `O=C(O)C1CC(=O)N(Cc2ccccn2)C1` (centres unmarked) [I-230], the IC50 was above 5 µM.

Consider `O=C(O)CC1NC(=O)c2ccccc21` (centres unmarked) [I-231], for which the IC50 was above 5 µM.

Take `CC(C(=O)O)N1CCCCC1=O` (centres unmarked) [I-232]: the IC50 was above 5 µM.

`Cn1ccc(N2CC(C(=O)O)CC2=O)n1` (centres unmarked) [I-233]: the IC50 is above 5 µM.

Regarding `CC1(C)CCc2c(C(=O)Nc3ccc(=O)n(CC(=O)O)c3)csc2C1` [I-234], the IC50 was above 5 µM.

Consider `O=C(O)Cn1cc(NC(=O)CC2Cc3ccc(Cl)cc3C2=O)ccc1=O` (centres unmarked) [I-235], for which the IC50 is above 5 µM.

The IC50 is the midpoint of a concentration-inhibition curve.
